These are literature values, as cited in patent publication US20250255800A1, “DETERGENT COMPOSITIONS FOR WASHING URUSHIOL AND METHODS OF TREATING URUSHIOL INDUCED CONTACT DERMATITIS” (THE WILLIAM M. YARBROUGH FOUNDATION, priority 2020, published 2025).

The subject of one series is aquatic organisms. Particulars: EPA statement / GHS Hazard Statement H411.
The conditions of series [1]: in vitro and in vivo assays.

As for nonylphenol [nonylphenol (NP)], the “toxicity to aquatic life” value with aquatic organisms was “extremely toxic to aquatic organisms”. Besides, in series [1], the estrogenic properties result is on record as “exhibit estrogenic properties”.
Turning to nonoxynol 9 [nonoxynol-9], in the series with aquatic organisms, the “toxicity to aquatic life” value is “toxic to aquatic life with long lasting effects”.
